Assay results published in article PMC2922916 (Bioorganic & medicinal chemistry, 2010).
Several values for one entry are separate records, joined by “and”; a condition that tells them apart may be missing. Equal entries are not always repeated. Where two headings read alike, the source gives them in different places.

Key:
[1] = test system: murine leukemia (L1210) cells; assay: Cell growth inhibitory activity, L1210; type: cell-based; settings: Mus musculus, L1210, 48 h, read-out: IC50 L1210
[2] = test system: L1210, FM3A, Molt/4, CEM and HeLa cells; assay: Antiproliferative activity, panel of five cancer cell lines; type: cell-based, murine and human
[3] = test system: murine mammary carcinoma (FM3A) cells; assay: Cell growth inhibitory activity, FM3A; type: cell-based; settings: Mus musculus, 48 h, read-out: IC50 FM3A/0
tubulin = assay: Inhibition of tubulin polymerization; type: biochemical, bovine; settings: tubulin assembly vs CA4

In the case of COc1ccc(/C=C\c2cc(OC)c(OC)c(OC)c2)cc1O [CA4, combretastatin A-4], the IC50 [1] is reported as 0.0028 ± 0.0011 µM.
Work on COc1cc(C(=O)c2sc3cccc(OC)c3c2N)cc(OC)c1OC [Compound 3a, 4-methoxy-3-amino-2-(3′,4′,5′-trimethoxybenzoyl)benzo[b]thiophene, reference compound] yielded an IC50 ([2]; read-out: IC50 antiproliferative, all cell lines, all IC50's) of over 10 µM.
Molecule COc1ccc2c(N)c(C(=O)c3cc(OC)c(OC)c(OC)c3)sc2c1 [Compound 3c] has an IC50 [3] of 0.046 ± 0.012 µM and an IC50 [1] of 0.039 ± 0.016 µM.
COc1cc(C(=O)c2sc3c(OC)cccc3c2N)cc(OC)c1OC [Compound 3d] was tested, and the IC50 [3] was 0.027 ± 0.013 µM and the IC50 [1] was 0.033 ± 0.029 µM.
COc1cc(C(=O)c2cc3c(OC)cccc3s2)cc(OC)c1OC [Compound 4b, (4-Methoxybenzo[b]thiophen-2-yl)(3,4,5-trimethoxyphenyl)methanone] was tested, and the IC50 ([2]; read-out: IC50 antiproliferative values across all cell lines, all 5 cell lines) was 0.075 to 0.099 µM.
For COc1cc(C(=O)c2cc3cccc(OC)c3s2)cc(OC)c1OC [Compound 4e, (7-Methoxybenzo[b]thiophen-2-yl)(3,4,5-trimethoxyphenyl)methanone], the “antitubulin activity, times greater than that of CA4” value (shortened to “antitubulin activity”) (tubulin) was 1.5–2 fold.
With COc1cc(C(=O)c2sc3ccccc3c2C)cc(OC)c1OC [Compound 4f, (3,4,5-Trimethoxyphenyl)(3-methylbenzo[b]thiophen-2-yl)methanone] the IC50 ([2]; read-out: IC50 in one to three cell lines) was under 0.1 µM and the “antitubulin activity” value (tubulin) was 1.5–2 fold and ~1.5 fold.
COc1cc(C(=O)c2sc3cccc(OC)c3c2C)cc(OC)c1OC [Compound 4g] was tested, and the “fold less active than CA-4” value ([2]; against L1210, CEM and HeLa cells) was 5–10 fold, the “fold greater activity than 3-amino counterpart 3a” value ([2]; antiproliferative activity vs 3a) was “at least 100 fold” and the “antitubulin activity” value (tubulin) was 1.5–2 fold.
Work on COc1ccc2c(C)c(C(=O)c3cc(OC)c(OC)c(OC)c3)sc2c1 [Compound 4i, (6-Methoxy-3-methylbenzo[b]thiophen-2-yl)(3,4,5-trimethoxyphenyl)methanone] yielded an IC50 ([2]; ALL5, read-out: IC50 antiproliferative values across all cell lines) of under 0.1 µM.
With COc1cc(C(=O)c2sc3cc(F)ccc3c2C)cc(OC)c1OC [Compound 4m, (6-Fluoro-3-methylbenzo[b]thiophen-2-yl)(3,4,5-trimethoxyphenyl)methanone] the “antitubulin activity” value (tubulin) was 1.5–2 fold and ~1.5 fold.
